Laboratory results: patent publication US9765037B2, “Compositions and methods for treating toxoplasmosis, cryptosporidiosis, and other apicomplexan protozoan related diseases” (University of Washington Through its Center for …, priority 2010, dated 2017)
Converted amounts (≈) assume the structure as drawn. Where two headings read alike, the source gives them in different places.

Assays:
PfCDPK4 = PfCDPK4 (Plasmodium falciparum (isolate 3D7), UniProt Q8IBS5); test: biochemical; details: for inhibition at 3 µM: read-out: PfCDPK4 (% inhibition @ 3 uM)
PfCDPK1 = PfCDPK1 (Plasmodium falciparum (isolate 3D7), UniProt P62344); test: biochemical; details: for inhibition at 3 µM: read-out: PfCDPK1 (% inhibition @ 3 uM)
[1] = Solubility in buffers of various pH; assay type: physicochemical; details: pH 6.5, aqueous buffer, read-out: Experimental Solubility pH 6.5
CpCDPK1 = CpCDPK1 (Cryptosporidium parvum (strain Iowa II), UniProt A3FQ16); test: biochemical; assay type: biochemical
TgCDPK1 = TgCDPK1 (Toxoplasma gondii, UniProt Q9BJF5); assay type: biochemical
[2] = Table 8, read-out: IC50 (μM) CpCDPK1

Chain of CpCDPK1 (A3FQ16 1-538): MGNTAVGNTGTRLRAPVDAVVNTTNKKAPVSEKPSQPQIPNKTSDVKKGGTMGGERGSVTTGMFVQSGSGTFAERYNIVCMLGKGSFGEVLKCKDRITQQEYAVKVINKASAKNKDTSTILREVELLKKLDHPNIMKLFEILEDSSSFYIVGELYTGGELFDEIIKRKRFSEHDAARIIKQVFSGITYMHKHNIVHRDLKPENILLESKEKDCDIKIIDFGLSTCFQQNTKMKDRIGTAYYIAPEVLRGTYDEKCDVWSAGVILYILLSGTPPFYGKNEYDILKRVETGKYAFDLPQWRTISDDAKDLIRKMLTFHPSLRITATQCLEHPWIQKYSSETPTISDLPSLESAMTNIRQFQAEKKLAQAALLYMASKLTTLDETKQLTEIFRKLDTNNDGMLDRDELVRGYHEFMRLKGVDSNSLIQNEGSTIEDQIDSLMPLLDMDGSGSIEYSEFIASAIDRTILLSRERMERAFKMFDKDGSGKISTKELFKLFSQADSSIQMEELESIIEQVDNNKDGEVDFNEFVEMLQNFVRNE
Chain of TgCDPK1 (Q9BJF5 1-507): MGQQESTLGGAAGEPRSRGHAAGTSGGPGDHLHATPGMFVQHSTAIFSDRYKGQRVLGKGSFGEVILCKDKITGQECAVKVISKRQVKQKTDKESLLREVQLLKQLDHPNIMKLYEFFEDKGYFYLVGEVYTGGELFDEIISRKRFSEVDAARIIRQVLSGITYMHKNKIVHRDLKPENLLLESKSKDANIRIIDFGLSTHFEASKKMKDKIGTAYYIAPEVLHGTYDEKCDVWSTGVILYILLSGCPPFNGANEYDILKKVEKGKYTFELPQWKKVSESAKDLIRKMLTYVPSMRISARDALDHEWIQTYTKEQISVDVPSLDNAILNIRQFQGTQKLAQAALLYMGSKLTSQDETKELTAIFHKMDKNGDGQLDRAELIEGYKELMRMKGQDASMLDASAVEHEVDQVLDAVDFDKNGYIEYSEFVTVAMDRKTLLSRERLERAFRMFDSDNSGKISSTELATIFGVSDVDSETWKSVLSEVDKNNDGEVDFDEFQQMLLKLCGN

Work on `Nc1ncnc2c1c(-c1ccc(Cl)cc1)nn2CC1CCNCC1` [Compound 45, 3-(4-chlorophenyl)-1-(piperidin-4-ylmethyl)-1H-pyrazolo[3,4-d]pyrimidin-4-amine] yielded an EC50 (PfCDPK4) of 0.35 µM, an EC50 (PfCDPK1) of 0.0565 µM and a solubility ([1]; buffer) of 62 µM (≈ 21.3 µg/mL).
Work on `Cn1ncc2cc(-c3nn(C(C)(C)C)c4ncnc(N)c34)ccc21` [Compound 142] yielded an EC50 (PfCDPK4) of 0.0947 µM, an EC50 (PfCDPK1) of 0.294 µM and a solubility ([1]; buffer) of 5.2 µM (≈ 1.67 µg/mL).
`Cc1cccc(-c2nn(C(C)(C)C)c3ncnc(N)c23)c1` [Compound 134] gave a solubility ([1]; buffer) of 19.3 µM (≈ 5.43 µg/mL).
`CC(C)(C)n1nc(-c2ccc(NC(=O)CCl)cc2)c2c(N)ncnc21` [Compound 58, N-(4-(4-amino-1-tert-butyl-1H-pyrazolo[3,4-d]pyrimidin-3-yl)phenyl)-2-chloroacetamide] showed an IC50 (CpCDPK1; [2]) of 0.588 µM, an IC50 (TgCDPK1; read-out: IC50 (μM) TgCDPK1) of 0.136 µM and an EC50 (PfCDPK4) of 2.43 µM. For the same molecule, the EC50 (PfCDPK1) was 0.214 µM.
With `COc1ccc2[nH]c(-c3nn(C(C)C)c4ncnc(N)c34)cc2c1` [Compound 27, 1-isopropyl-3-(5-methoxy-1H-indol-2-yl)-1H-pyrazolo[3,4-d]pyrimidin-4-amine] the IC50 (CpCDPK1; [2]) was 0.623 µM, the IC50 (TgCDPK1; read-out: IC50 (μM) TgCDPK1) was 0.0569 µM and the EC50 (PfCDPK4) was over 3 µM. The EC50 (PfCDPK1) was 0.879 µM.
For `CCOc1ccc2cc(-c3nn(C4CCNCC4)c4ncnc(N)c34)ccc2c1` [Compound 138], the solubility ([1]; buffer) was 51 µM (≈ 19.8 µg/mL).
`CSc1cccc(-c2nn(C(C)C)c3ncnc(N)c23)c1` [Compound 7ab, 1-isopropyl-3-(3-(methylthio)phenyl)-1H-pyrazolo[3,4-d]pyrimidin-4-amine] showed an IC50 (CpCDPK1; read-out: IC50 (μM) CpCDPK1) of 0.121 µM, an IC50 (TgCDPK1; read-out: IC50 (μM) TgCDPK1) of 0.056 µM and an inhibition at 3 µM (PfCDPK4) of 79%. It also gave an inhibition at 3 µM (PfCDPK1) of 85%.
With `COc1ccc(-c2nn(C(C)(C)C)c3ncnc(N)c23)cc1C` [Compound 132] the EC50 (PfCDPK4) was 1.49 µM, the EC50 (PfCDPK1) was over 3 µM and the solubility ([1]; buffer) was 3.8 µM (≈ 1.18 µg/mL).
`COc1ccc(-c2nn(CC3CCNCC3)c3ncnc(N)c23)cc1C` [Compound 144] gave a solubility ([1]; buffer) of 60 µM (≈ 21.1 µg/mL).
With `CC(C)c1nc(-c2ccc3ccccc3c2)c2c(N)nccn12` [Compound 8, 3-isopropyl-1-(naphthalen-2-yl)imidazo[1,5-a]pyrazin-8-amine] the IC50 (CpCDPK1; [2]) was 0.0078 µM, the IC50 (TgCDPK1; read-out: IC50 (μM) TgCDPK1) was 0.0048 µM and the EC50 (PfCDPK4) was 0.091 µM. It also gave an EC50 (PfCDPK1) of 0.156 µM.
With `CC(C)(C)n1nc(-c2ccc(Cl)cc2)c2c(N)ncnc21` [Compound 146] the solubility [1] was 9 µM (≈ 2.72 µg/mL).
Molecule `CC(C)(C)n1nc(-c2ccc(NC(=O)Cc3ccccc3)cc2)c2c(N)ncnc21` [Compound 66, N-(4-(4-amino-1-tert-butyl-1H-pyrazolo[3,4-d]pyrimidin-3-yl)phenyl)-2-phenylacetamide] has an IC50 (CpCDPK1; [2]) of 2.02 µM, an IC50 (TgCDPK1; read-out: IC50 (μM) TgCDPK1) of 0.178 µM and an EC50 (PfCDPK4) of 2.18 µM. The EC50 (PfCDPK1) was 0.287 µM.
In the case of `CC(C)(C)n1nc(-c2ccc3ncccc3c2)c2c(N)ncnc21` [Compound 143], the solubility ([1]; buffer) is reported as 17 µM (≈ 5.41 µg/mL).
Molecule `CC(C)C(=O)Nc1ccc(-c2nn(C(C)(C)C)c3ncnc(N)c23)cc1` [Compound 59, N-(4-(4-amino-1-tert-butyl-1H-pyrazolo[3,4-d]pyrimidin-3-yl)phenyl)isobutyramide] has an IC50 (CpCDPK1; [2]) of 0.832 µM, an IC50 (TgCDPK1; read-out: IC50 (μM) TgCDPK1) of 0.0997 µM and an EC50 (PfCDPK4) of 0.459 µM. The EC50 (PfCDPK1) was 0.111 µM.
In the case of `CC(C)(C)n1nc(-c2ccc(NC(=O)C3CCCC3)cc2)c2c(N)ncnc21` [Compound 63, N-(4-(4-amino-1-tert-butyl-1H-pyrazolo[3,4-d]pyrimidin-3-yl)phenyl)cyclopentanecarboxamide], the IC50 (CpCDPK1; [2]) is reported as 0.417 µM, the IC50 (TgCDPK1; read-out: IC50 (μM) TgCDPK1) is reported as 0.0462 µM and the EC50 (PfCDPK4) is reported as 0.136 µM. For the same molecule, the EC50 (PfCDPK1) was 0.0118 µM.
With `COc1cc(-c2nn(C(C)C)c3ncnc(N)c23)cc(OC)c1OC` [Compound 7l, 1-isopropyl-3-(3,4,5-trimethoxyphenyl)-1H-pyrazolo[3,4-d]pyrimidin-4-amine] the “selectivity TgCDPK1 versus CpCDPK1 (in words)” value (CpCDPK1) was “equipotent or slightly selective for CpCDPK1”, the IC50 (CpCDPK1; read-out: CpCDPK1 IC50) was 0.093 µM and the IC50 (TgCDPK1; read-out: TgCDPK1 IC50) was 0.42 µM. For the same molecule, the inhibition at 3 µM (PfCDPK4) was 31% and the inhibition at 3 µM (PfCDPK1) was 85%.
For `CC(C)n1nc(-c2ccc3c(c2)OCO3)c2c(N)ncnc21` [Compound 7u, 3-(benzo[d][1,3]dioxol-5-yl)-1-isopropyl-1H-pyrazolo[3,4-d]pyrimidin-4-amine], the IC50 (CpCDPK1; read-out: IC50 (μM) CpCDPK1) was 0.312 µM, the IC50 (TgCDPK1; read-out: IC50 (μM) TgCDPK1) was 0.045 µM and the EC50 (PfCDPK4) was 1.1 µM. For the same molecule, the EC50 (PfCDPK1) was 0.422 µM.
